Assay results reported in patent publication US20230165980A1, “METHODS FOR RADIOLABELING PSMA BINDING LIGANDS AND THEIR KITS” (Novartis AG, priority 2020, published 2023).

Test: Radiochemical purity: non-complexed ^68Ga species by ITLC
Format: physicochemical
Protocol: Radiochemical Purity: Non-Complexed ^68Ga Species by ITLC
Radical Scavenger to be used for the improvement of the radiochemical stability of ^68Ga-PSMA-11, tests were performed according to a varied approach in order to consider all the parameters that may affect the radiochemical purity of the product (activity, pH, volume, amount of Gentisic Acid).
Stability tests were performed on the freeze dried product containing the final formulation. […] Kits manufactured with the final formulation, indeed, were stored at different stability conditions (2-8° C.; 25° C. and 40° C.) and were tested at different time points for API-assay, Radiochemical Purity and Radiochemical Stability of the radiolabelled product. […]

Substance: ^68Ga-PSMA-11 [[^68Ga] Gallium PSMA-11]
- [^68Ga] Not Complexed Species, iTLC (t0 h, Gentisic Acid 0 μg, IRE 17.19 mCi, 1 mL, pH 5.24): 0.00%
- [^68Ga] Not Complexed Species, iTLC (t0 h, Gentisic Acid 200 μg, IRE 17.85 mCi, 1 mL, pH 5.22): 0.23%
- [^68Ga] Not Complexed Species, iTLC (t0 h, Gentisic Acid 200 μg, IRE 18.07 mCi, 1 mL, pH 5.25): 0.00%
- [^68Ga] Not Complexed Species, iTLC (t0 h, Gentisic Acid 200 μg, ITG 35.92 mCi, 4 mL, pH 4.83): 0.00%
- [^68Ga] Not Complexed Species, iTLC (t0 h, Gentisic Acid 400 μg, IRE 17.44 mCi, 1 mL, pH 5.13): 0.00%
- [^68Ga] Not Complexed Species, iTLC (t0 h, Gentisic Acid 400 μg, IRE 17.79 mCi, 1 mL, pH 5.11): 0.00%
- [^68Ga] Not Complexed Species, iTLC (t0 h, Gentisic Acid 400 μg, ITG 16.9 mCi, 4 mL, pH 4.85): 0.00%
- [^68Ga] Not Complexed Species, iTLC (t0 h, Gentisic Acid 400 μg, ITG 31.97 mCi, 4 mL, pH 4.81): 0.00%
- [^68Ga] Not Complexed Species, iTLC (t0 h, Gentisic Acid 1000 μg, E&Z 15.65 mCi, 5 mL, pH 3.75): 0.00%
- [^68Ga] Not Complexed Species, iTLC (t0 h, Gentisic Acid 1000 μg, IRE 17.1 mCi, 1 mL, pH 5.08): 0.00%
- [^68Ga] Not Complexed Species, iTLC (t0 h, Gentisic Acid 1000 μg, ITG 30.9 mCi, 4 mL, pH 4.87): 0.00%
- [^68Ga] Not Complexed Species, iTLC (t0 h, final formulation kit at Release, E&Z 15.65 mCi, 5 mL, pH 3.75): 0.00%
- [^68Ga] Not Complexed Species, iTLC (t0 h, final formulation kit at Release, E&Z 16.80 mCi, 5 mL, pH 3.75): 0.51%
- [^68Ga] Not Complexed Species, iTLC (t0 h, final formulation kit at Release, IRE 32.27 mCi, 1 mL, pH 4.95): 0.00%
- [^68Ga] Not Complexed Species, iTLC (t0 h, final formulation kit at Release, IRE 32.95 mCi, 1 mL, pH 5.07): 0.00%
- [^68Ga] Not Complexed Species, iTLC (t0 h, final formulation kit at Release, ITG 29.74 mCi, 4 mL, pH 4.67): 0.00%
- [^68Ga] Not Complexed Species, iTLC (t0 h, final formulation kit at Release, ITG 30.90 mCi, 4 mL, pH 4.67): 0.00%
- [^68Ga] Not Complexed Species, iTLC (t0 h, kit stored 3 months at 2-8° C., IRE 25.76 mCi, 1 mL, pH 5.29): 0.00%
- [^68Ga] Not Complexed Species, iTLC (t0 h, kit stored 3 months at 25° C., IRE 24.56 mCi, 1 mL, pH 5.16): 0.00%
- [^68Ga] Not Complexed Species, iTLC (t0 h, kit stored 3 months at 40° C., IRE 24.86 mCi, 1 mL, pH 5.23): 0.00%
- [^68Ga] Not Complexed Species, iTLC (t0 h, kit stored 6 months at 2-8° C., IRE 19.90 mCi, 1 mL, pH 5.13): 0.00%
- [^68Ga] Not Complexed Species, iTLC (t0 h, kit stored 6 months at 25° C., IRE 18.88 mCi, 1 mL, pH 5.09): 0.00%
- [^68Ga] Not Complexed Species, iTLC (t0 h, kit stored 6 months at 40° C., IRE 19.34 mCi, 1 mL, pH 5.15): 0.00%
- [^68Ga] Not Complexed Species, iTLC (t4 h, Gentisic Acid 0 μg, IRE 17.19 mCi, 1 mL, pH 5.24): 0.00%
- [^68Ga] Not Complexed Species, iTLC (t4 h, Gentisic Acid 200 μg, IRE 17.85 mCi, 1 mL, pH 5.22): 0.00%
- [^68Ga] Not Complexed Species, iTLC (t4 h, Gentisic Acid 200 μg, IRE 18.07 mCi, 1 mL, pH 5.25): 0.00%
- [^68Ga] Not Complexed Species, iTLC (t4 h, Gentisic Acid 200 μg, ITG 35.92 mCi, 4 mL, pH 4.83): 0.00%
- [^68Ga] Not Complexed Species, iTLC (t4 h, Gentisic Acid 400 μg, IRE 17.44 mCi, 1 mL, pH 5.13): 0.00%
- [^68Ga] Not Complexed Species, iTLC (t4 h, Gentisic Acid 400 μg, IRE 17.79 mCi, 1 mL, pH 5.11): 0.00%
- [^68Ga] Not Complexed Species, iTLC (t4 h, Gentisic Acid 400 μg, ITG 16.9 mCi, 4 mL, pH 4.85): 0.00%
- [^68Ga] Not Complexed Species, iTLC (t4 h, Gentisic Acid 400 μg, ITG 31.97 mCi, 4 mL, pH 4.81): 0.00%
- [^68Ga] Not Complexed Species, iTLC (t4 h, Gentisic Acid 1000 μg, E&Z 15.65 mCi, 5 mL, pH 3.75): 0.00%
- [^68Ga] Not Complexed Species, iTLC (t4 h, Gentisic Acid 1000 μg, IRE 17.1 mCi, 1 mL, pH 5.08): 0.00%
- [^68Ga] Not Complexed Species, iTLC (t4 h, Gentisic Acid 1000 μg, ITG 30.9 mCi, 4 mL, pH 4.87): 0.00%
- [^68Ga] Not Complexed Species, iTLC (t4 h, final formulation kit at Release, E&Z 15.65 mCi, 5 mL, pH 3.75): 0.00%
- [^68Ga] Not Complexed Species, iTLC (t4 h, final formulation kit at Release, E&Z 16.80 mCi, 5 mL, pH 3.75): 0.00%
- [^68Ga] Not Complexed Species, iTLC (t4 h, final formulation kit at Release, IRE 32.27 mCi, 1 mL, pH 4.95): 0.00%
- [^68Ga] Not Complexed Species, iTLC (t4 h, final formulation kit at Release, IRE 32.95 mCi, 1 mL, pH 5.07): 0.00%
- [^68Ga] Not Complexed Species, iTLC (t4 h, final formulation kit at Release, ITG 29.74 mCi, 4 mL, pH 4.67): 0.00%
- [^68Ga] Not Complexed Species, iTLC (t4 h, final formulation kit at Release, ITG 30.90 mCi, 4 mL, pH 4.67): 0.00%
- [^68Ga] Not Complexed Species, iTLC (t4 h, kit stored 3 months at 2-8° C., IRE 25.76 mCi, 1 mL, pH 5.29): 0.00%
- [^68Ga] Not Complexed Species, iTLC (t4 h, kit stored 3 months at 25° C., IRE 24.56 mCi, 1 mL, pH 5.16): 0.00%
- [^68Ga] Not Complexed Species, iTLC (t4 h, kit stored 3 months at 40° C., IRE 24.86 mCi, 1 mL, pH 5.23): 0.00%
- [^68Ga] Not Complexed Species, iTLC (t4 h, kit stored 6 months at 2-8° C., IRE 19.90 mCi, 1 mL, pH 5.13): 0.00%
- [^68Ga] Not Complexed Species, iTLC (t4 h, kit stored 6 months at 25° C., IRE 18.88 mCi, 1 mL, pH 5.09): 0.00%
- [^68Ga] Not Complexed Species, iTLC (t4 h, kit stored 6 months at 40° C., IRE 19.34 mCi, 1 mL, pH 5.15): 0.00%
